Paper PMC9640990 (Frontiers in Pharmacology, 2022)
Where two headings read alike, the source gives them in different places.

Key:
[1] = in vivo; conditions: male, Sprague-Dawley, rat, po, 0.72 g/kg; for Cmax: C max; for Vd/F: V z/F; for Tmax: t max, median (range); for k el: k e; for half-life: t 1/2, plasma PK-marker
[2] = target: T1, hOAT1 (Homo sapiens, UniProt Q4U2R8); assay: Inhibition of hOAT1-mediated uptake of 14C-PAH in hOAT1-MDCK cells; type: cell-based
T1 construct: host or cells: MDCK
T1 sequence (Q4U2R8 1-563): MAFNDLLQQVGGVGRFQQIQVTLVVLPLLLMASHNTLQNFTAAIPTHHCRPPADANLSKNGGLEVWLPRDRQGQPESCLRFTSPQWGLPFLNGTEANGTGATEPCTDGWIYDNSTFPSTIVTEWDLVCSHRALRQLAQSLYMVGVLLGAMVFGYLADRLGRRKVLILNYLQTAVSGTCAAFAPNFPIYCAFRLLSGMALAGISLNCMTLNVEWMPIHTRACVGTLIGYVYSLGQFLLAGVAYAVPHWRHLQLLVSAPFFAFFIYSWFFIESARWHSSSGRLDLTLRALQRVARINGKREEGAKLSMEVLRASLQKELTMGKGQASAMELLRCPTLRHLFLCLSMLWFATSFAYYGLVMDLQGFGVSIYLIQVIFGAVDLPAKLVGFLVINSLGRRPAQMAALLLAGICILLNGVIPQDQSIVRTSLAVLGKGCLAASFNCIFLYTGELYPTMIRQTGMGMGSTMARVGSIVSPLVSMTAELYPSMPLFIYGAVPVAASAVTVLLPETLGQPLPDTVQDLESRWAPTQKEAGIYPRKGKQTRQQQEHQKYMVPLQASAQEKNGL
Description: Briefly, the hOAT1-MDCK, hOAT3-MDCK, and hOCT2-S2 cells were trypsinized and suspended in the culture medium to provide a density of 1.5 × 10^5 cells/ml. […] After cultivation for 7 days, cells were washed twice and equilibrated for 30 min at 37°C with the pre-warmed HBSS buffer. […] The content of DMSO was below 1% and constant in all inhibition experiments. All experiments were performed in triplicate. The cell lysate and 3.0 ml of aquasol-2 scintillation fluid were put into a scintillation flask. […] IC50 values were determined by employing GraphPad Prism 9.

[3] = target: hOAT3 (Homo sapiens, UniProt Q8TCC7); assay: Inhibition of hOAT3-mediated uptake of 3H-ES in hOAT3-MDCK cells; type: cell-based
Description: Considering the relative exposure characteristics, GA and PCA were selected as PK-marker and Q-marker components of PCE in previous studies ([Ma et al., 2015]; [Ma et al., 2016]; [Li et al., 2021b]). In this study, we investigated the concentration-dependent inhibitions of GA and PCA on multiple transporters, including OAT1, OAT3, OCT2, MDR1, and BCRP. Stably expressing cell lines of hOAT1-MDCK, hOAT3-MDCK, hOCT2-S2, hMDR1-MDCK, hBCRP-MDCK, and their mock cells were obtained from Japan Fuji Biomedical Co., Ltd. The cells were maintained in DMEM (Sigma) supplemented with 10% FCS, 1% non-essential amino acids (Sigma), and 2% L-glutamine. The medium for the Transwell® plates (Corning Costar, Cambridge, MA, United States) was supplemented with 0.1% gentamicin. Membrane filters were placed in a 12 mm well with 1.5 and 0.5 ml of culture medium in the basolateral and apical compartments, respectively. Cells were cultured at 37°C in an atmosphere of 5% CO2. The inhibition experiments were adapted from previous methods with minor modifications ([Li et al., 2021a]; [2021b]).
Briefly, the hOAT1-MDCK, hOAT3-MDCK, and hOCT2-S2 cells were trypsinized and suspended in the culture medium to provide a density of 1.5 × 10^5 cells/ml. After incubating for 48 h, the cells were washed twice with preheated DPBS and then pre-incubated with DPBS for 10 min at 37°C. 500 µl of DPBS containing probe substrates was added to initiate the uptake in the presence or absence of GA, PCA or positive inhibitors. The hMDR1-MDCK and hBCRP-MDCK cells were suspended at a density of 4.0 × 10^5 cells/ml. After cultivation for 7 days, cells were washed twice and equilibrated for 30 min at 37°C with the pre-warmed HBSS buffer. […] The radioactive intensity of ^14C-PAH, ^3H-ES, and ^14C-TEA was measured using a Tri-Carb 2910TR scintillator (PerkinElmer, United States). Fluorescence was measured at 485 nm (excitation) and 546 nm (emission) for rhodamine 123, and 425 nm (excitation) and 528 nm (emission) for lucifer yellow. IC50 values were determined by employing GraphPad Prism 9.

[4] = Tissue distribution-based herb-drug interaction study in rats (CIP i.v., PCE i.g.); type: in vivo, Sprague-Dawley rats
[5] = clinical; conditions: male, human; for Cmax: C max; for Vd/F: V z/F; for k el: k e
[6] = not given; remark: listed apart in the source
[7] = plasma, plasma PK-marker, rats, intragastric PCE 0.72 g/kg + CIP […]
[8] = plasma, plasma PK-marker, rats, intragastric PCE 0.72 g/kg alone
[9] = plasma, oral, plasma PK-marker, human subjects, multiple doses of PCE (8 g, TID, seven days) + CIP 0.5 g
[10] = plasma, oral, plasma PK-marker, human subjects, single dose of PCE (8 g) + CIP 0.5 g
[11] = plasma, po, plasma PK-marker, human subjects, oral single dose of PCE (8 g) alone
[12] = plasma PK-marker, human subjects, oral single dose of PCE (8 g) alone

hOAT3, sequence (Q8TCC7 whole entry): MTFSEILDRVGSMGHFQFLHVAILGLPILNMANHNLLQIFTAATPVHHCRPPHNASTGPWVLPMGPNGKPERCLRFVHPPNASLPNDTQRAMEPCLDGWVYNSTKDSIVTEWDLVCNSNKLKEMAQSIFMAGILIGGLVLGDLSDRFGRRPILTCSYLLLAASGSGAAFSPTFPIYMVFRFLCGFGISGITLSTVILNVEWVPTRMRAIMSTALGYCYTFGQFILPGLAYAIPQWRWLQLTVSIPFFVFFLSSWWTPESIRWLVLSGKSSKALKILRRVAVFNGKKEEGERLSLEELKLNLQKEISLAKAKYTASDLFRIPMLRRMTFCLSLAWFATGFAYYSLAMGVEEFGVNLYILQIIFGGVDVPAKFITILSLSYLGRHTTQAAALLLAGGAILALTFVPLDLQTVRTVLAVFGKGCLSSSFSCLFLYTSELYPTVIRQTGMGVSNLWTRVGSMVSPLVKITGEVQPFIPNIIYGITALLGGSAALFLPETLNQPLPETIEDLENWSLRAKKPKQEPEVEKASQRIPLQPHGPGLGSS

Compound: O=C(O)c1cc(O)c(O)c(O)c1 [GA, Gallic acid]
- AUC(0-t) ([1]; in vivo): 465 ± 171 ng·h/mL
- AUC(0-inf) ([1]; in vivo): 483 ± 169 ng·h/mL
- Cmax ([1]; in vivo): 134 ± 36.4 ng/mL
- Vd/F ([1]; in vivo): 8.93 ± 9.83 L
- Tmax ([1]; in vivo, plasma PK-marker, rats, intragastric PCE 0.72 g/kg alone): 90 min
- k el [1, 7]: 0.000122 s⁻¹
- k el [1, 8]: 9.72e-05 s⁻¹
- t 1/2 (male, Sprague-Dawley, rat, in vivo, po, 0.72 g/kg): 157 ± 107 min
- CL/F (rat, in vivo, po, 0.72 g/kg): 2.06 ± 0.85 L/h
- IC50 [2]: 8.01 µM
- IC50 [3]: 62.3 µM
- order of C max in tissues ([4]; CIP + PCE group (PK-marker)): SVG > prostate > kidney > lung > plasma
- order of C max in tissues ([4]; PCE group): SVG > prostate > kidney > plasma > testis
- order of AUC 0-t in tissues ([4]; intragastric PCE in the absence and presence of CIP): SVG > prostate > kidney > testis > plasma
- change of C max by CIP ([4]; kidney and heart, p < 0.05): decreased
- Tmax ([5]; in vivo, po): 52.8 min
- AUC(0-t) ([5]; in vivo, po): 242 ± 70 ng·h/mL
- AUC(0-inf) ([5]; in vivo, po): 248 ± 67 ng·h/mL
- Cmax ([5]; in vivo, po): 130 ± 32.7 ng/mL
- Vd/F ([5]; in vivo, po): 322 ± 295 L
- half-life ([5]; in vivo, po, t 1/2): 98.4 ± 55.2 min
- k el [5, 9]: 0.000117 s⁻¹
- k el [5, 10]: 0.000131 s⁻¹
- k el [5, 11]: 0.000142 s⁻¹
- CL/F ([6]; human, in vivo, po): 2.10 ± 0.64 L/h

Compound: O=C(O)c1ccc(O)c(O)c1 [PCA, protocatechuic acid]
- AUC(0-t) [1, 7]: 6.37 ± 1.18 ng·h/mL
- AUC(0-t) [1, 8]: 6.72 ± 2.39 ng·h/mL
- AUC(0-inf) [1, 7]: 7.04 ± 1.55 ng·h/mL
- AUC(0-inf) [1, 8]: 7.32 ± 2.39 ng·h/mL
- Cmax [1, 7]: 6.69 ± 1.87 ng/mL
- Cmax [1, 8]: 5.08 ± 1.82 ng/mL
- Vd/F [1, 7]: 6.87 ± 2.54 L
- Vd/F [1, 8]: 6.5 ± 3.16 L
- k el [1, 7]: 0.000306 s⁻¹
- k el [1, 8]: 0.000308 s⁻¹
- half-life ([1]; plasma, rats, intragastric PCE 0.72 g/kg + CIP […]): 45.6 ± 25.8 min
- half-life ([1]; plasma, rats, intragastric PCE 0.72 g/kg alone): 40.8 ± 12.6 min
- Tmax [1, 7]: 30 min
- Tmax [1, 8]: 30 min
- CL/F (plasma PK-marker, rats, intragastric PCE 0.72 g/kg + CIP […]): 6.67 ± 1.54 L/h
- CL/F (plasma PK-marker, rats, intragastric PCE 0.72 g/kg alone): 6.72 ± 2.19 L/h
- IC50 ([2]; hOAT1-MDCK cells, 14C-PAH 5 µM): 29.7 µM
- IC50 ([3]; hOAT3-MDCK cells, 3H-ES 0.05 µM, read-out: IC50, hOAT3): 152 µM
- order of both AUC 0-t and C max in tissues ([4]; CIP + PCE group): prostate > SVG > kidney > testis > plasma
- order of both AUC 0-t and C max in tissues ([4]; PCE group): SVG > kidney > prostate > testis > spleen
- change of K p by CIP ([4]; each tissue, p > 0.05): did not significantly alter
- change of AUC 0-t by CIP ([4]; kidney, p < 0.05): decreased
- change of C max by CIP ([4]; prostate, p < 0.05): significantly increased
- AUC(0-t) [5, 9]: 3.03 ± 0.9 ng·h/mL
- AUC(0-t) [5, 10]: 3.68 ± 1.15 ng·h/mL
- AUC(0-inf) [5, 9]: 3.35 ± 0.99 ng·h/mL
- AUC(0-inf) [5, 10]: 4.4 ± 0.93 ng·h/mL
- Cmax [5, 9]: 5.88 ± 1.66 ng/mL
- Cmax [5, 10]: 6.44 ± 2.57 ng/mL
- Vd/F [5, 9]: 150 ± 54.4 L
- Vd/F [5, 10]: 149 ± 65.6 L
- k el [5, 9]: 0.000697 s⁻¹
- k el [5, 10]: 0.000569 s⁻¹
- half-life ([5]; plasma, oral, t 1/2, plasma PK-marker, human subjects, multiple doses of PCE (8 g, TID, seven days) + CIP 0.5 g): 18.6 ± 8.4 min
- half-life ([5]; plasma, oral, t 1/2, plasma PK-marker, human subjects, single dose of PCE (8 g) + CIP 0.5 g): 25.2 ± 11.4 min
- Tmax ([5]; plasma, po): 19.8 min
- AUC(0-t) [5, 11]: 2.84 ± 0.72 ng·h/mL
- AUC(0-inf) [5, 11]: 3.39 ± 0.94 ng·h/mL
- Vd/F [5, 11]: 148 ± 23.9 L
- k el [5, 11]: 0.000656 s⁻¹
- half-life ([5]; plasma, po, t 1/2, plasma PK-marker, human subjects, oral single dose of PCE (8 g) alone): 19.2 ± 6.6 min
- CL/F ([6]; plasma PK-marker, human subjects, multiple doses of PCE (8 g, TID, seven days) + CIP 0.5 g): 5.78 ± 1.57 L/h
- C max [6, 12]: 6.07 ± 1.48 ng/mL
- CL/F [6, 12]: 5.64 ± 1.45 L/h
- CL/F ([6]; plasma PK-marker, human subjects, single dose of PCE (8 g) + CIP 0.5 g): 4.26 ± 0.91 L/h
